What was measured:
M1 muscarinic receptor = target: T1, M1 muscarinic receptor (Rattus norvegicus, UniProt P08482); test: M1 muscarinic receptor binding, [3H] pirenzipine, rat hippocampus
T1 construct: from tissue; host or cells: rat hippocampus
T1 sequence (P08482 1-460): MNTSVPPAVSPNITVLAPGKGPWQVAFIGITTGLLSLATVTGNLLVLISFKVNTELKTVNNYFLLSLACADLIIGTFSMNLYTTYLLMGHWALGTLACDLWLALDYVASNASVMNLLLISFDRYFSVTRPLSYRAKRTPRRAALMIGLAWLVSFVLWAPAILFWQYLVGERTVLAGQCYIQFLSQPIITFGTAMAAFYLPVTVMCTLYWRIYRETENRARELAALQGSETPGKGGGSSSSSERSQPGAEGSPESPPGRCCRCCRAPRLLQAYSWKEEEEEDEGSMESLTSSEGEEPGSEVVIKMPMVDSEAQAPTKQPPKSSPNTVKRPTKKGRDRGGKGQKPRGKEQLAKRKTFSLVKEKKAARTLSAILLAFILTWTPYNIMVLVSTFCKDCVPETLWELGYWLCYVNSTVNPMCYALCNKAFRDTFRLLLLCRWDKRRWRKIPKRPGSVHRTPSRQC
Experimental: The M1 muscarinic receptor binding properties of the compounds of this invention were established as follows:
Homogenized rat hippocampus tissue is suspended in 0.32M aqueous sucrose solution and centrifuged (747×g for 10 minutes at 4° C.) and the supernatent liquid is decanted and recentrifuged (18,677×g for 20 minutes at 4° C.). The resulting pellet is resuspended in the original volume of 0.32M aqueous sucrose. The sample is then diluted 1:2 in 10 mM Na2 HPO4 /KH2 PO4 buffer (pH=7.4). A 100 μl sample of the buffered tissue suspension is incubated at 25° C. for 60 minutes in the dark with 10 μl of test compound or vehicle for control and [^3 H] pirenzipine (0.5 nM, 0.04 μCi) q.s. 1 milliliter with the buffer solution. Atropine sulfate (2 μM) is added to half the samples being processed. Binding is terminated by vacuum filtration onto Whatman GF/B filters which are washed three times with the buffer solution (3 ml/wash, 4° C.). […] Specific ]^3 H] PZ binding is defined as total binding minus binding in the presence of 2 μM atropine sulfate.

M2 muscarinic receptor = target: T2, M2 muscarinic receptor (Rattus norvegicus, UniProt P10980); test: M2 receptor binding, [3H] quinuclidinyl benzilate, rat cerebellum; conditions: [3H] quinuclidinyl benzilate 0.23 nM, 37° C., 60 minutes
T2 construct: Homogenized rat cerebellum tissue; from tissue; host or cells: rat cerebellum
T2 sequence (P10980 1-466): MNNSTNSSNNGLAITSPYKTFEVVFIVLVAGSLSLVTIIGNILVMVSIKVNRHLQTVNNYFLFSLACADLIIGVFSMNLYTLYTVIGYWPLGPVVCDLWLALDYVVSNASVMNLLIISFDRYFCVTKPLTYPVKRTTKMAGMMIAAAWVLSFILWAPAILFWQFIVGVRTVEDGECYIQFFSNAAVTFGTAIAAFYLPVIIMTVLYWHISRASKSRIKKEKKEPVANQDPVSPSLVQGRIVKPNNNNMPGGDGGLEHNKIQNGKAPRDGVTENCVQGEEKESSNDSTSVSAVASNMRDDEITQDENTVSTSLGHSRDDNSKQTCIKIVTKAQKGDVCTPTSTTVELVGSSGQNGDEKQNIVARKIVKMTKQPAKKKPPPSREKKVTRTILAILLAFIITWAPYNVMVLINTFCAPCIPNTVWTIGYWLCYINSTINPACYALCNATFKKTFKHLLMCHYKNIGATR

[1] = target: T3, 5-HT1A serotonin receptor subtype (Rattus norvegicus, UniProt P19327); test: Affinity for 5-HT1A receptor sites, displacement of 3H-8-OH DPAT (Hall et al.); format: binding; conditions: for inhibition at 1 µM: 1 μM test compound
T3 construct: from tissue
T3 sequence (P19327 1-422): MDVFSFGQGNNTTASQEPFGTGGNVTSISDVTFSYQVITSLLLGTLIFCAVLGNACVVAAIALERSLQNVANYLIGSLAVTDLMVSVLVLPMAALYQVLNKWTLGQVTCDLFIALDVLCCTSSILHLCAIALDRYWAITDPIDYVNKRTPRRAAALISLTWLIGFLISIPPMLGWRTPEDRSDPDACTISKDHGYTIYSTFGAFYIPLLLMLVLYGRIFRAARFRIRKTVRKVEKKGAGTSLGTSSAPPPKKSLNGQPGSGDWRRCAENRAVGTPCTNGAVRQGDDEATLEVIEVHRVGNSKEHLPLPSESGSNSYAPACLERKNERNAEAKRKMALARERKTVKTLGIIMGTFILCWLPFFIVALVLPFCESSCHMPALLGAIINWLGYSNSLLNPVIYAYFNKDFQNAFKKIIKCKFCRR
Description: The serotoninergic properties of the compounds of this invention were established by the procedure of Hall et al., J. Neurochem.

[2] = target: T4, limbic D2 (dopamine) receptor (Rattus norvegicus, UniProt P61169); test: Affinity for D2 receptor sites, inhibition of 3H-spiroperidol binding to limbic brain tissue; conditions: 1 μM test compound
T4 construct: from tissue; host or cells: limbic brain tissue

[3] = background statement, Barone et al., 1986; cited from earlier work

T4 sequence (P61169 whole entry): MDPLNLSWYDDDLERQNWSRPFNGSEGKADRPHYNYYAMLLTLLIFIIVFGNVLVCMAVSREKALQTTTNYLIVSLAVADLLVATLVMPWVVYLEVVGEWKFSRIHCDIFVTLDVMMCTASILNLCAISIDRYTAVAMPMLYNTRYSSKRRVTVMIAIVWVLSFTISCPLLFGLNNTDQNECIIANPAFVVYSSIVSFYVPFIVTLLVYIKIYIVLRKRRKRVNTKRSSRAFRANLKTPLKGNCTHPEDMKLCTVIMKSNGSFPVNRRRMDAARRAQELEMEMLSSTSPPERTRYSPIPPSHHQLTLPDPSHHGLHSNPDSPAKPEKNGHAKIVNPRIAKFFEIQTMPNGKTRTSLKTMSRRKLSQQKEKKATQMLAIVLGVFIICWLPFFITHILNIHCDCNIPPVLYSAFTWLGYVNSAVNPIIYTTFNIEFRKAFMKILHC

Row | SMILES | inhibition at 1 µM [1] [%] | inhibition at 1 µM [2] [%] | also measured
1 | O=C(OCCCN1CCN(c2ncccn2)CC1)C12CC3CC(CC1C3)C2 [Example 3, Hexahydro-2,5-methanopentalene-3a[1H]-carboxylic acid 3-[4-(2-pyrimidyl)-1-piperazinyl]propyl ester] | – | – | M2/M1 Ratio (M1 muscarinic receptor; IC50 M2 / IC50 M1): 81; IC50 (M1 muscarinic receptor; rat hippocampus, [3H] pirenzipine 0.5 nM, 25° C., 60 minutes): 850 nM; IC50 (M2 muscarinic receptor): 69000 nM; inhibition at 0.1 µM ([1]; 100 nM test compound): 12%
2 | COc1ccccc1N1CCN(CCOC(=O)C23CC4CC(CC2C4)C3)CC1 [Example 2, Hexahydro-2,5-methanopentalene-3a[1H]-carboxylic acid 2-[4-(2-methoxyphenyl)-1-piperazinyl]ethyl ester] | 95 | 100 | –
3 | Cc1nc2sccn2c(=O)c1CCN1CCC(=C(c2ccc(F)cc2)c2ccc(F)cc2)CC1 [Ritanserin] | – | – | clinical efficacy as anxiolytic-antidepressant agents [3]: demonstrate clinical efficacy as anxiolytic-antidepressant agents
4 | O=C(OCCN1CCN(c2ncccn2)CC1)C12CC3CC(CC1C3)C2 [Example 1, Hexahydro-2,5-methanopentalene-3a[1H]-carboxylic acid 2-[4-(2-pyrimidyl)-1-piperazinyl]ethyl ester] | 93 | 47 | Ki ([1]; calculated from IC50 values): 23 nM
5 | COc1ccccc1N1CCN(CCCOC(=O)C23CC4CC(CC2C4)C3)CC1 [Example 4, Hexahydro-2,5-methanopentalene-3a[1H]carboxylic acid 3-[4-(2-methoxyphenyl)-1-piperazinyl]propyl ester] | 96 | 100 | –

— US4873331A, “Noradamantyl-carboxylic acid piperazinoalkyl esters” (American Home Products Corporation, priority 1988, dated 1989)
